According to PubChem BioAssay AID2060498 (Molecular Pharmacology Branch, DTP, NCI, 2025):
pIC50: −log10 of the molar value.

System: 171881-019-R-J1-PDC tumor spheroids, viability
Assay: Anticancer human tumor 171881-019-R-J1-PDC patient-derived invasive breast carcinoma cell line growth inhibition [GQUAD]
Conditions: spheroids with HUVEC and MSC; for pIC50: curve of first compound; for viability, T/C: stronger effect = lower value
How it was run: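 Tumor cells were grown as complex spheroids with HUVEC endothelial cells and mesenchymal stem cells as stroma. G-quadruplex stabilizers were combined with targeted agents over half-log dilutions from near the clinical Cmax, or from 10 microM.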
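Also: spheroids exposed to compounds for 7 days.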
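For viability, T/C in this document: 100% = DMSO vehicle control viability.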

With `CCCS(=O)(=O)Nc1ccc(F)c(C(=O)c2c[nH]c3ncc(-c4ccc(Cl)cc4)cc23)c1F` + Cc1cnc(CNC(=O)c2c(=O)c3ccc(N4CCCN(C)CC4)nc3n3c2sc2ccccc23)cn1 the pIC50 (second compound 0.0316 µM) was less than 5.00, the pIC50 (second compound 0.1 µM) was less than 5.00 and the pIC50 (second compound 0.316 µM) was less than 5.00. It also gave a pIC50 (second compound 1 µM) of less than 5.00, a pIC50 (second compound 3.16 µM) of less than 5.00 and a pIC50 (second compound 10 µM) of less than 5.00. For the same compound, the viability, T/C (second compound 0.0316 µM, first compound 0.0316 µM) was 104%, the viability, T/C (second compound 0.0316 µM, first compound 0.1 µM) was 95.3% and the viability, T/C (second compound 0.0316 µM, first compound 0.316 µM) was 108%. For the same compound, the viability, T/C (second compound 0.0316 µM, first compound 1 µM) was 112%, the viability, T/C (second compound 0.0316 µM, first compound 3.16 µM) was 117% and the viability, T/C (second compound 0.0316 µM, first compound 10 µM) was 69.3%. The viability, T/C (second compound 0.1 µM, first compound 0.0316 µM) was 83%, the viability, T/C (second compound 0.1 µM, first compound 0.1 µM) was 95.2% and the viability, T/C (second compound 0.1 µM, first compound 0.316 µM) was 90.4%. For the same compound, the viability, T/C (second compound 0.1 µM, first compound 1 µM) was 102%, the viability, T/C (second compound 0.1 µM, first compound 3.16 µM) was 92.2% and the viability, T/C (second compound 0.1 µM, first compound 10 µM) was 54.9%. For the same compound, the viability, T/C (second compound 0.316 µM, first compound 0.0316 µM) was 78%, the viability, T/C (second compound 0.316 µM, first compound 0.1 µM) was 78.8% and the viability, T/C (second compound 0.316 µM, first compound 0.316 µM) was 81.9%. It also gave a viability, T/C (second compound 0.316 µM, first compound 1 µM) of 78.7%, a viability, T/C (second compound 0.316 µM, first compound 3.16 µM) of 91.9% and a viability, T/C (second compound 0.316 µM, first compound 10 µM) of 52.1%. For the same compound, the viability, T/C (second compound 1 µM, first compound 0.0316 µM) was 72.1%, the viability, T/C (second compound 1 µM, first compound 0.1 µM) was 66.5% and the viability, T/C (second compound 1 µM, first compound 0.316 µM) was 79.5%. It also gave a viability, T/C (second compound 1 µM, first compound 1 µM) of 69.5%, a viability, T/C (second compound 1 µM, first compound 3.16 µM) of 82.3% and a viability, T/C (second compound 1 µM, first compound 10 µM) of 59.6%. The viability, T/C (second compound 3.16 µM, first compound 0.0316 µM) was 63.9%, the viability, T/C (second compound 3.16 µM, first compound 0.1 µM) was 61.8% and the viability, T/C (second compound 3.16 µM, first compound 0.316 µM) was 68.5%. For the same compound, the viability, T/C (second compound 3.16 µM, first compound 1 µM) was 66.6%, the viability, T/C (second compound 3.16 µM, first compound 3.16 µM) was 67.5% and the viability, T/C (second compound 3.16 µM, first compound 10 µM) was 53%. It also gave a viability, T/C (second compound 10 µM, first compound 0.0316 µM) of 59.9%, a viability, T/C (second compound 10 µM, first compound 0.1 µM) of 62.1% and a viability, T/C (second compound 10 µM, first compound 0.316 µM) of 59.4%. The viability, T/C (second compound 10 µM, first compound 1 µM) was 68%, the viability, T/C (second compound 10 µM, first compound 3.16 µM) was 68.4% and the viability, T/C (second compound 10 µM, first compound 10 µM) was 51.8%.
